Data: patent US20120309798A1, “Tumour Treatment Agents and Method” (Vivolux AB, priority 2009, published 2012)
Where two headings read alike, the source gives them in different places.

Columns and labels:
Format in all cases: cell-based
[1] = tested on: Renal cancer patient tumor cells; test: FMCA, patient tumor samples, renal cancer; settings: Homo sapiens
Excerpt: (§1) Cell culture. Patient tumor samples (98) and preparations (4) of normal peripheral blood mononuclear cells (PBMC), detailed in Table 1, were used to determine the activity of VLX50 and, for comparison, six other cytotoxic drugs chosen to represent different mechanistic classes.
(§2) The tumor samples were obtained by bone marrow/peripheral blood sampling, routine surgery or diagnostic biopsy. Leukemic cells and PBMCs were isolated by 1.077 g ml-1 Ficoll-Paque centrifugation (Larsson et al., 1992). Tumor tissue from solid tumor samples was minced into small pieces and tumor cells were isolated by collagenase dispersion followed by Percoll density gradient centrifugation (Csoka et al., 1994). […] Cell viability was determined by trypan blue exclusion test and the proportion of tumor cells in the preparation was judged by inspection of May-Grunvald-Giemsa stained cytospin slides (FIG. 1a). […]
(§3) Fluorometric Microculture Cytotoxicity Assay. The Fluorometric Microculture Cytotoxicity Assay, FMCA, described in detail previously (Lindhagen et al., 2008), is based on measurement of fluorescence generated from hydrolysis of fluorescein diacetate (FDA) to fluorescein by cells with intact plasma membranes. […] Quality criteria for a successful assay included a mean coefficient of variation of less than 30% in the control and a fluorescence signal in control wells of more than 5 times the blank. […]

[2] = tested on: intracellular free iron in MCF-7 cells; test: Measurement of intracellular iron (Phen Green); settings: MCF-7, Phen Green fluorescent probe, 100 μM or 500 μM
Excerpt: Measurement of intracellular iron. The fluorescent membrane permeable Fe sensor, Phen Green (Invitrogen AB, Göteborg, Sweden) was used to measure changes in intracellular free iron concentration. Fluorescence of the PhenGreen indicators is quenched upon binding Fe^2+ and Fe^3+. The emission intensity of the PhenGreen FL indicator depends on both the metal ion's concentration and the indicator's concentration. MCF-7 cells were harvested and diluted to 500,000 per mL in complete medium, loaded with 10 μM PhenGreen diacetate for 45 minutes and plated to flat-bottomed 96W microtiter plates. The plates were washed ×2 with PBS, resuspended in 180 μl PBS per well and subsequently analyzed by a plate reading fluorometer Fluostar Optima which is programmed to scan fluorescence once a minute for 20 minutes with a break after 5 minutes, during which 20 μl PBS, or VLX50 (100 μM or 500 μM) was added.
Mechanism of action. Mechanistic exploration was performed using gene expression analysis of drug treated tumor cell cultures to generate a drug specific signature. The breast cancer cell line MCF-7 was treated with VLX50 or vehicle (DMSO) and analyzed for gene expression using the Affymetrix U1300plus chip. […] This query signature was subsequently submitted to the GSEA and the Connectivity map databases and strong connections to hypoxia inducible factor (HIF1 alfa) and iron chelators were retrieved. […]

[3] = tested on: Colon cancer patient tumor cells; test: FMCA, patient tumor samples, colon cancer; settings: Homo sapiens
Excerpt: as §1, §2, §3

IC50 ([1]; n=7, 72 h FMCA, read-out: Median IC50): > 40 µM | IC50 ([1]; range over n=7 samples, read-out: IC50 Range): 23.8 to 40 µM | IC50 ([3]; n=6, 72 h FMCA, read-out: Median IC50): > 40 µM | IC50 ([3]; range over n=6 samples, read-out: IC50 Range): 0.49 to 40 µM
Structure (SMILES): COCCCNC(=S)N/N=C\c1ccccn1 [VLX50, N1-(3-methoxypropyl)-2-(pyridylmethylidene)-hydrazine-1-carbothioamide]
Intracellular iron concentration [2]: decrease
